Test results from patent US20240269104A1, “METHOD FOR TREATING PARKINSON'S DISEASE” (Olatec Therapeutics, Inc., priority 2021, published 2024).

Key:
IL-1β = IL-1β in brain homogenates by ELISA after MPTP; type: in vivo, mice; settings: 200 mg/kg once each day; 4 days after MPTP-acute
Text: It has been reported that administration of MPTP induces the assembly of NLPR3 inflammasome in the brain. Mice were sacrificed after anesthesia by cervical dislocation at 4 and 7 days after MPTP administration. Brains were collected, and the striatum (St) and ventral midbrain (VM) areas of both hemispheres were excised and frozen in liquid nitrogen. Samples were homogenized in RIPA buffer (Thermo Fisher, Waltham, MA) supplemented with protease inhibitor (Thermo Fisher) using a TissueRuptor (Qiagen, Germantown, MD). Protein concentration was determined using a BCA Protein Assay Kit (Thermo Fisher) according to manufacturer's instructions. Samples were diluted to 2 mg/ml in the same extraction buffer.
Levels of IL-1β, IL-18, IL-6, and IL-17A from brain homogenates were measured by ELISA DuoSet kit (R&D Systems, Minneapolis, MN). ELISA kit for IL-1β detects 92-95% of the 17 kDa form and only 8-5% of the precursor form of this cytokine. 96-well plates (ThermoFisher Scientific) were coated with capture antibody. Samples were incubated for two hours at room temperature. Detection antibodies and streptavidin-HRP were added. TMB ELISA (cBioscience, San Diego, CA) was used as substrate solution. Results were measured in a microplate reader (Bio-Tek, Santa Clara, CA). Final values were normalized by the protein concentration of each sample. 4-5 mice per group were used for each cytokine.

α-synuclein = α-synuclein Western blot in the ventral midbrain after MPTP-subacute administration; type: in vivo, mice; settings: 200 mg/kg for 6 days, 24 hours after last MPTP injection
Protocol: MPTP (Sigma-Aldrich, St. Louis, MO) can be administered at two dose regimens: acute and sub-acute. For the acute regimen, MPTP was administered intraperitoneally (i.p.) four times in one day. Administrations were performed every two hours over an eight-hour period. For the subacute regimen, mice received a single i.p. administration of MPTP per day for five consecutive days. A 20 mg/kg free-base MPTP dose was used for every dose in both models. Sterile saline was used as the vehicle. Control mice were injected with saline solution using the same administration protocol and were defined as sham. Mice were sacrificed at different days after the first injection of MPTP. We used the acute protocol in C56BL/J mice to study dopamine neurodegeneration, inflammation, and motor deficits, whereas the subacute model was used to evaluate α-synuclein aggregation in the following examples.
Since MPTP promotes α-synuclein aggregation after subacute regimen, we evaluated the effect of dapansutrile on the levels of this protein. 24 hours after the last injection of MPTP, mice were sacrificed. The VM was excised, and proteins were resolved as described in Example 9. VM was selected as the region to evaluate α-synuclein accumulation according to previous publications. […] The levels of α-synuclein were determined by Western blot. […]

SMILES: CS(=O)(=O)CCC#N [dapansutrile, 3-methanesulfonylpropionitrile]
- levels of IL-1β in the ventral midbrain (VM) (IL-1β): no changes associated to dapansutrile
- reduction of levels of IL-1β in the striatum (St) (IL-1β): 24%
- levels of monomeric form of α-synuclein (17 kDa) in the ventral midbrain (α-synuclein): significantly reduced
- levels of oligomeric forms of α-synuclein (150-30 kDa) in the ventral midbrain (α-synuclein): significantly reduced
